Consider 10 molecules from ChEMBL document CHEMBL1201862, “PubChem BioAssay data set” (2004).

Test systems include Hs-578T; K562; COLO 205; NCI/ADR-RES; SK-MEL-5; T47D; OVCAR-8; OVCAR-5; HCT-116; IGROV-1; ACHN; NCI-H226; HCT-15; OVCAR-3; MDA-MB-231; M14; A549; 786-0; HL-60; MCF7.
Common to all, as to test: inhibition of tumour cell growth, NCI panel, 48 h

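All cell lines were grown in 96-well plates and treated with compound for 48 hours. Here, GI50 denotes the concentration required for 50% inhibition of growth.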 Calls of active or inactive are those of the source. No stated cut-off is given here; in the data, active = GI50 up to about 1.1 µM and inactive = higher.

For the molecule `NNC1=NC(=O)NC(=O)C1`, the GI50 in the assay on Hs-578T, in the assay with K562, with COLO 205, in the assay with NCI/ADR-RES, in the assay on SK-MEL-5 and in the assay on T47D was > 100 µM (inactive) in each case. Also, the GI50 in the assay on OVCAR-8, with OVCAR-5, with HCT-116, in the assay with IGROV-1, in the assay on ACHN and in the assay with NCI-H226 was > 100 µM (inactive) throughout. For the same molecule, the GI50 with HCT-15 is greater than 100 µM; in the assay with OVCAR-3 it was > 100 µM (inactive); with MDA-MB-231, > 100 µM (inactive); in the assay with M14, > 100 µM (inactive); with A549 it was > 100 µM (inactive); in the assay on 786-0 it was > 100 µM (inactive). For the same molecule, the GI50 in the assay on HL-60 and with MCF7 was > 100 µM (inactive) each time.

As for `Oc1cccc(-c2cn3cc(Cl)ccc3n2)c1`, the GI50 with Hs-578T is 97.1 µM (inactive); in the assay with K562, 42.1 µM (inactive); in the assay on COLO 205, 33.6 µM (inactive); in the assay with NCI/ADR-RES, 34.5 µM (inactive); in the assay with SK-MEL-5, 16.6 µM (inactive); in the assay with T47D, 12.7 µM (inactive). Further, the GI50 in the assay with OVCAR-8 is 31.4 µM (inactive); in the assay on OVCAR-5, 72.6 µM (inactive); in the assay with HCT-116 it was 57.9 µM (inactive); with IGROV-1, 16.7 µM (inactive); with ACHN, 43.9 µM (inactive); in the assay on NCI-H226, 91.4 µM (inactive). Also, the GI50 in the assay with HCT-15 is 30.7 µM; with OVCAR-3, 31.7 µM (inactive); with MDA-MB-231 it was > 100 µM (inactive); with M14, 49.7 µM (inactive); in the assay on A549, 51.5 µM (inactive); in the assay with 786-0, 66.2 µM (inactive). In addition, the results for the GI50 with HL-60 and in the assay on MCF7 were 5.4 µM (inactive) and 17.3 µM (inactive), respectively.

Regarding `CCO/C=C(\C(=O)OC)S(=O)(=O)c1ccc(C)cc1`, the GI50 in the assay with Hs-578T, with K562, in the assay on COLO 205, in the assay on NCI/ADR-RES, with SK-MEL-5 and with T47D was > 100 µM (inactive) throughout. Moreover, the GI50 in the assay with OVCAR-8, in the assay on OVCAR-5, in the assay on HCT-116, in the assay on IGROV-1, in the assay on ACHN and in the assay with NCI-H226 was > 100 µM (inactive) each time. Also, the GI50 in the assay with HCT-15 was greater than 100 µM; in the assay on OVCAR-3, > 100 µM (inactive); in the assay with MDA-MB-231, > 100 µM (inactive); in the assay on M14, > 100 µM (inactive); in the assay with A549, > 100 µM (inactive); in the assay on 786-0, > 100 µM (inactive). In addition, the GI50 in the assay with HL-60 was 0.0596 µM (active); in the assay with MCF7, > 100 µM (inactive).

Take `CC(=O)n1nc(-c2nc3ccccc3nc2Cl)cc1Cl`: the GI50 in the assay on Hs-578T was 34.5 µM (inactive); in the assay on K562 it was 3.61 µM (inactive); with COLO 205, 18.4 µM (inactive); in the assay with NCI/ADR-RES, 22.3 µM (inactive); in the assay with SK-MEL-5, 4.68 µM (inactive); with T47D it was 68.4 µM (inactive). Besides, the GI50 in the assay on OVCAR-8 was 26.4 µM (inactive); in the assay on OVCAR-5, 34.7 µM (inactive); in the assay on HCT-116 it was 3.78 µM (inactive); with IGROV-1 it was 30.1 µM (inactive); with ACHN, 11.6 µM (inactive); with NCI-H226, 10.3 µM (inactive). Besides, the GI50 with HCT-15 was 11.2 µM; in the assay with OVCAR-3 it was 19.8 µM (inactive); with MDA-MB-231, 28.8 µM (inactive); in the assay with M14, 4.43 µM (inactive); in the assay on A549 it was 29.5 µM (inactive); with 786-0 it was 23.6 µM (inactive). Also, the GI50 in the assay with HL-60 was 8.02 µM (inactive); in the assay on MCF7, 26.9 µM (inactive).

`N#Cc1nn(C(N)=O)c(N)c1C#N`: the GI50 in the assay with Hs-578T, with K562, with COLO 205, in the assay with NCI/ADR-RES, in the assay on SK-MEL-5 and with T47D was > 100 µM (inactive) in each case. The GI50 with OVCAR-8, with OVCAR-5, in the assay with HCT-116, in the assay with IGROV-1, in the assay with ACHN and in the assay on NCI-H226 was > 100 µM (inactive) in each case. Further, the GI50 with HCT-15 was greater than 100 µM; in the assay on OVCAR-3 it was > 100 µM (inactive); in the assay with MDA-MB-231 it was > 100 µM (inactive); in the assay on M14 it was > 100 µM (inactive); with A549, > 100 µM (inactive); in the assay with 786-0 it was > 100 µM (inactive). The GI50 in the assay on HL-60 and in the assay on MCF7 was > 100 µM (inactive) each time.

As to `O=C(NC(Nc1ccc(F)cc1)(C(F)(F)F)C(F)(F)F)C(C(F)(F)F)C(F)(F)F`, the GI50 in the assay with Hs-578T was 20.4 µM (inactive); in the assay on K562, 0.401 µM (active); with COLO 205 it was 6.65 µM (inactive); in the assay with NCI/ADR-RES it was 4.46 µM (inactive); in the assay with SK-MEL-5, 1.43 µM (inactive); with T47D, 3.15 µM (inactive). In addition, the GI50 with OVCAR-8 was 3.18 µM (inactive); with OVCAR-5, > 96.6 µM (inactive); in the assay on HCT-116 it was 4.2 µM (inactive); in the assay on IGROV-1, 7.62 µM (inactive); with ACHN it was 1.71 µM (inactive); with NCI-H226 it was 50.5 µM (inactive). Also, the GI50 in the assay on HCT-15 was 2.13 µM; with OVCAR-3, 44.3 µM (inactive); in the assay with MDA-MB-231 it was 52 µM (inactive); in the assay on M14 it was 0.402 µM (active); in the assay on A549 it was 5.53 µM (inactive); in the assay on 786-0, > 54.1 µM (inactive). For the same molecule, the GI50 with HL-60 was 1.04 µM (active); in the assay on MCF7, 16.7 µM (inactive).

On to `CC(SC(=S)N1CCOCC1)C(=O)Nc1nnc(-c2ccccc2)o1` (stereo not given), for which the GI50 in the assay on Hs-578T was > 100 µM (inactive); with K562, 55.1 µM (inactive); in the assay on COLO 205, > 100 µM (inactive); in the assay on NCI/ADR-RES it was 26.1 µM (inactive); in the assay on SK-MEL-5 it was 46.7 µM (inactive); in the assay with T47D, 91.6 µM (inactive). For the same molecule, the GI50 is > 100 µM (inactive) in the assay with OVCAR-8; > 100 µM (inactive) in the assay with OVCAR-5; 93.3 µM (inactive) with HCT-116; 99.1 µM (inactive) in the assay on IGROV-1; 97.7 µM (inactive) in the assay with ACHN; > 100 µM (inactive) in the assay on NCI-H226. Further, the GI50 in the assay with HCT-15 was 29.7 µM; with OVCAR-3, > 100 µM (inactive); in the assay on MDA-MB-231, > 100 µM (inactive); with M14, > 100 µM (inactive); in the assay with A549, 70 µM (inactive); in the assay with 786-0, 83.2 µM (inactive). For the same molecule, the GI50 in the assay with HL-60 is 5.05 µM (inactive); in the assay on MCF7 it was 60.1 µM (inactive).

As to `O=C(CSc1nc2ccc(I)cc2c(=O)n1Cc1ccccc1)N/N=C/c1ccccc1`, the GI50 in the assay with Hs-578T was 1.01 µM (active); with K562, 29.6 µM (inactive); in the assay with COLO 205 it was > 100 µM (inactive); in the assay with NCI/ADR-RES it was 23.8 µM (inactive); with SK-MEL-5, 42.4 µM (inactive); with T47D, 23.1 µM (inactive). The GI50 in the assay on OVCAR-8 was 17.9 µM (inactive); in the assay on OVCAR-5 it was 57 µM (inactive); in the assay on HCT-116, 33.9 µM (inactive); in the assay on IGROV-1 it was 14.8 µM (inactive); in the assay with ACHN, 21.7 µM (inactive); in the assay with NCI-H226, 29.9 µM (inactive). For the same molecule, the GI50 was 22.1 µM in the assay on HCT-15; 11.6 µM (inactive) in the assay on OVCAR-3; 8.2 µM (inactive) in the assay with MDA-MB-231; 43.3 µM (inactive) in the assay with M14; 25.2 µM (inactive) in the assay on A549; 11.8 µM (inactive) in the assay with 786-0. Also, the figures for the GI50 in the assay on HL-60 and with MCF7 were > 100 µM (inactive) and 25.2 µM (inactive), respectively.

Regarding `COc1ccc(N2C(=O)C3c4[nH]c5ccc([N+](=O)[O-])cc5c4C4CCC(C(C)(C)C)CC4C3C2=O)cc1` (stereo not given), the GI50 in the assay on Hs-578T is 25.4 µM (inactive); in the assay on K562, 2.52 µM (inactive); in the assay with COLO 205, 4.82 µM (inactive); in the assay on NCI/ADR-RES, 9.62 µM (inactive); in the assay with SK-MEL-5, 12.4 µM (inactive); in the assay with T47D, 27.5 µM (inactive). Besides, the GI50 in the assay on OVCAR-8 is 23.6 µM (inactive); with OVCAR-5 it was 18.5 µM (inactive); with HCT-116, 3.24 µM (inactive); in the assay on IGROV-1 it was 7.66 µM (inactive); in the assay on ACHN it was 9.75 µM (inactive); in the assay with NCI-H226, 28 µM (inactive). For the same molecule, the GI50 in the assay on HCT-15 is 14.4 µM; in the assay on OVCAR-3, 7.29 µM (inactive); in the assay with MDA-MB-231, 5.18 µM (inactive); in the assay with M14, 14.8 µM (inactive); in the assay on A549, 6.28 µM (inactive); in the assay on 786-0, 11.4 µM (inactive). Besides, the GI50 in the assay on HL-60 was 8.02 µM (inactive); with MCF7, 4.45 µM (inactive).

Consider `CC1OC(OC2C[C@](O)(C(=O)CBr)Cc3c(O)c4c(c(O)c32)C(=O)c2ccccc2C4=O)C(F)C(O)C1O` (stereo not given in full), for which the GI50 in the assay on Hs-578T was 30 µM (inactive); in the assay with K562 it was 2.56 µM (inactive); with COLO 205, 9.73 µM (inactive); with NCI/ADR-RES, 15.8 µM (inactive); in the assay with SK-MEL-5 it was 8.95 µM (inactive); in the assay with T47D, 5.35 µM (inactive). The GI50 in the assay with OVCAR-8 is 16.1 µM (inactive); with OVCAR-5, 13.5 µM (inactive); in the assay with HCT-116, 5.83 µM (inactive); in the assay with IGROV-1, 7.89 µM (inactive); with ACHN, 1.53 µM (inactive); in the assay with NCI-H226 it was 12.7 µM (inactive). Besides, the GI50 is 5.86 µM with HCT-15; 13.9 µM (inactive) with OVCAR-3; 9.89 µM (inactive) with MDA-MB-231; 7.14 µM (inactive) in the assay on M14; 4.67 µM (inactive) in the assay on A549; 3.66 µM (inactive) with 786-0. In addition, the GI50 in the assay with HL-60 was 0.838 µM (active); in the assay on MCF7, 1.19 µM (inactive).
